Results taken from PMC10065799, “High-throughput profiling of sequence recognition by tyrosine kinases and SH2 domains using bacterial peptide display” (eLife, 2023).

Key:
Experiment in all cases: pTyr-Var library bacterial peptide display kinase screen (enrichment scores)
EPHB2 kinase domain = assay type: biochemical, human; settings: sheet EPHB2
EPHB1 kinase domain = assay type: biochemical, human; settings: for Screen: sheet EPHB1, effect of the variant peptide relative to its reference peptide in the pTyr-Var library screen (enrichment scores); for Screen (variant relative to reference peptide, measured in the pTyr-Var library screen): sheet "EPHB1", variant seq vs reference seq, bacterial peptide display enrichment
Fer kinase domain = assay type: biochemical, mouse; settings: sheet "Fer"
c-Src kinase domain = c-Src kinase domain (Homo sapiens, UniProt P12931); assay type: biochemical; settings: sheet "Src";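 also: log2 fold change in enrichment of variant over reference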
c-Abl kinase domain = biological target: T1, c-Abl kinase domain (Mus musculus, UniProt P00520); assay type: biochemical;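 also: log2 fold change in enrichment of variant over reference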
T1 sequence (P00520 242-493 limits assumed): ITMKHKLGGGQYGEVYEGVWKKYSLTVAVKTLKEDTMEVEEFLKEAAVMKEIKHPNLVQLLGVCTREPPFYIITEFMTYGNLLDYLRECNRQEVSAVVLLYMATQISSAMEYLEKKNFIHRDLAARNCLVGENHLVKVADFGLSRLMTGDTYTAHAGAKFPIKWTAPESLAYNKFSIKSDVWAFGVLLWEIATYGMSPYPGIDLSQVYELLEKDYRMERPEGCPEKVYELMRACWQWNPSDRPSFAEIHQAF

[1] = effect of variant peptide relative to its reference peptide in the pTyr-Var library screen (enrichment scores)
[2] = value of the variant peptide against its reference peptide in the pTyr-Var library screen with Fer
[3] = effect of the variant peptide relative to its reference peptide in the pTyr-Var library screen
[4] = fig5-data2, sheet "Abl", Screen for the variant/reference peptide pair, pTyr-Var library
[5] = variant peptide versus its reference peptide in the pTyr-Var library screen
[6] = variant peptide relative to its reference peptide, pTyr-Var library screen enrichment
[7] = effect of the variant relative to its reference peptide in the pTyr-Var library screen

Sequence	Screen (EPHB1 kinase domain)	Screen (Fer kinase domain; [2])	Screen (c-Src kinase domain; [5])	other results
ADCRFYTFPQM [GAMT_Y223_A224T_YF]	-1.572	-1.641	–	Screen (EPHB2 kinase domain; [1]): -2.189
NNDLCYWVLEL [IARS1_Y434_P437L]	-1.633	–	–	Screen (EPHB2 kinase domain; [1]): -2.3; Screen (c-Src kinase domain; [3]): 1.285
NAGDFYDLFGG [PTPN11_Y63_T59A_YF]	–	–	0.4386	Screen (c-Abl kinase domain; [4]): -0.2092; Screen (Fer kinase domain; [6]): 0.394
TTSQLYDAMPI [PDPK1_Y9_V12M]	-0.6854	-0.6658	-0.9144	Screen (EPHB2 kinase domain; [1]): -1.368
AGDGRYEVLFL [SEMA3F_Y478_A474G]	–	–	–	Screen (Fer kinase domain; [6]): 0.6103
VWALTYCDLHK [KCNH2_Y827_R823W]	1.577	–	–	–
IDPFTYTPFGS [CYP3A4_Y432_I431T_YF]	–	-1.49	–	Screen (c-Src kinase domain; [3]): -1.161
CPSLLYSPVSS [CAMKK2_Y128_P127L]	3.226	2.071	–	Screen (EPHB2 kinase domain; [1]): 2.723; Screen (c-Src kinase domain; [3]): 2.179
HMEAVYIDIAD [PITPNA_Y140_V136M]	1.841	1.696	0.9488	Screen (EPHB2 kinase domain; [1]): 1.927
RRIHSYRGFLW [VHL_Y112_H115Y_YF]	–	–	-2.75	Screen (c-Abl kinase domain; sheet "Abl", effect of variant peptide relative to its reference peptide in pTyr-Var library screen (enrichment)): -4.49; Screen (EPHB2 kinase domain; [7]): -0.9029; Screen (variant relative to reference peptide, measured in the pTyr-Var library screen) (EPHB1 kinase domain): -2.336
PKSWNYELPAT [PROM1_Y34_A31S]	0.9154	–	–	Screen (EPHB2 kinase domain; [1]): 0.6095
SNTFLYQLVFD [EXO1_Y284_N279S]	0.05167	-0.008577	–	Screen (EPHB2 kinase domain; [1]): -0.053; Screen (c-Src kinase domain; [3]): -0.03965
NQELIYEGQRL [TBK1_Y354_R357Q]	–	–	-0.1995	Screen (Fer kinase domain; [6]): 0.5191
DNEALYDTCFR [TUBB2B_Y208_I210T]	–	–	-0.1626	Screen (EPHB2 kinase domain; [7]): -0.7919; Screen (variant relative to reference peptide, measured in the pTyr-Var library screen) (EPHB1 kinase domain): -0.7019; Screen (Fer kinase domain; [6]): -0.2841
FDSPFYQDSLP [TSC1_Y508_R509Q]	–	–	–	Screen (Fer kinase domain; [6]): 2.568
SDPIVYTLENI [EMR1_Y534_I533V]	–	-1.778	–	Screen (c-Src kinase domain; [3]): -0.3296
DPLLTYWFPPK [LMNA_Y481_R482W]	4.875	–	–	Screen (EPHB2 kinase domain; [1]): 5.36; Screen (c-Src kinase domain; [3]): 3.284

Sequence	Screen (EPHB1 kinase domain)	Screen (Fer kinase domain; [2])	Screen (c-Src kinase domain; [5])	other results
ESAAIYNPVIF [RHO_Y301_K296E_YF]	–	–	0.5635	Screen (Fer kinase domain; [6]): 0.08101
CPFNLYAAQLS [HGD_Y40_E42A_YF]	0.6281	–	–	–
RRIHSYRGHLC [VHL_Y112_W117C]	–	–	-2.769	Screen (variant relative to reference peptide, measured in the pTyr-Var library screen) (EPHB1 kinase domain): -1.181
FVTSMYNEILI [TRPV1_Y310_M315I]	–	–	–	Screen (Fer kinase domain; [6]): 0.9219
KFLENYFDLEK [MMP3_Y41_K45E_YF]	0.3113	–	–	–
RVLHNYLVWCV [ECEL1_Y400_R404C]	-0.3702	–	–	–
LFSNAYLSDLA [ALDH1A1_Y119_N121S_YF]	1.358	–	–	Screen (c-Src kinase domain; [3]): 1.319
ITNHIYTWVDP [DFNB31_Y234_V229I]	0.06659	-0.03067	–	Screen (EPHB2 kinase domain; [1]): -0.0087; Screen (c-Src kinase domain; [3]): 0.3882
SSSPTYLDLPF [GLI3_Y168_P169L]	3.84	–	–	–
KCCCIYEKPRS [PPP1R11_Y64_A69S]	–	-0.1382	-0.2424	Screen (c-Abl kinase domain; [4]): 0.7147
RPPFTYATLIH [FOXP3_Y342_R347H]	0.127	–	–	Screen (c-Src kinase domain; [3]): 0.0554
KMKGDYFCFLA [YWHAG_Y130_R132C_YF]	–	–	0.4816	Screen (EPHB2 kinase domain; [7]): 1.601; Screen (variant relative to reference peptide, measured in the pTyr-Var library screen) (EPHB1 kinase domain): 1.698
LKMLVYMDMSK [LRRC7_Y234_L235M]	1.011	–	–	–
PLGPLYASSNT [INSR_Y992_P997T]	–	-0.7776	–	–
LTERSYSFVTT [ACTA1_Y200_G199S]	–	1.792	–	Screen (c-Abl kinase domain; [4]): 0.4799
NTGVFYDLFGG [PTPN11_Y63_D61V_YF]	–	0.6171	0.1029	–
QRHFVYFFSFL [PTEN_Y176_R173H_YF]	–	0.1451	–	–
